These results are taken from BindingDB's records for doi:10.7270/Q2ZC817P (The Scripps Research Institute Molecular Screening Center, 2007).

SMILES strings stand for the structures. Structures can show the parent of a compound that is named as a salt.

One test deals with Sphingosine 1-phosphate receptor 1 (Homo sapiens, UniProt P21453). Put plainly: potentiators of S1P1 agonist response, dose response, cell-based, potentiator mode, 60K MLSMR set (AID 466).
Sphingosine 1-phosphate receptor 1, sequence (P21453 whole entry): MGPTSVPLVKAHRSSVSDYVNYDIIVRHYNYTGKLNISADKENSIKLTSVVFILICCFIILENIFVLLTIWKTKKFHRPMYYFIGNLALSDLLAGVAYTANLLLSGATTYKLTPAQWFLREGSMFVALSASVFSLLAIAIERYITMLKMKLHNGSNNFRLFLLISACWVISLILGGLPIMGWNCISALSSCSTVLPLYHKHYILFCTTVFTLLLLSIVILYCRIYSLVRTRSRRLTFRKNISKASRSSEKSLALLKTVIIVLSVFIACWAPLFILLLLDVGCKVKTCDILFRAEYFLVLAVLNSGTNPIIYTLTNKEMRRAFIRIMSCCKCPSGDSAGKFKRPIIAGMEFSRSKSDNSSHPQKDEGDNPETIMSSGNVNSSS
Conditions: not given
For the compound `CCn1c(-c2cccc(Cl)c2)n[nH]c1=S` [SMR000104244], the EC50 was above 95 µM.

As for `Cc1nn(C(=O)c2cccs2)c(N)c1-c1ccccc1` [(5-amino-3-methyl-4-phenyl-1-pyrazolyl)-thiophen-2-ylmethanone], the EC50 amounted to 4.9 µM.

As for `Nc1nnnn1N=C/C(Br)=C/c1ccccc1` [1-[[(Z)-2-bromanyl-3-phenyl-prop-2-enylidene]amino]-1,2,3,4-tetrazol-5-amine], the EC50 was above 10 µM.

Consider `O=C(Nc1ccc(-c2noc(CCc3ccccc3)n2)cc1)c1cccnc1` [MLS000047253], for which the EC50 stood at 3.4 µM.

For the compound `CCOc1ccc(-c2nc(-c3ccncc3)no2)cc1OCC` [4-[5-(3,4-diethoxyphenyl)-1,2,4-oxadiazol-3-yl]pyridine], the EC50 was determined as 0.226 µM.

`CC(=N)C(C#N)C(=O)CSc1nnc(SCc2ccc(Cl)cc2)s1` (configuration not stated) [(E)-3-amino-2-[2-[[5-[(4-chlorobenzyl)thio]-1,3,4-thiadiazol-2-yl]thio]acetyl]but-2-enenitrile]: the EC50 came to 9.63 µM.

In the case of `O=C(Nc1ccc(N2CCCCC2)c(Cl)c1)c1nnc[nH]1`, the EC50 came to 0.879 µM.

Turning to `CC(C)OC(=O)CSc1nc(N)c(C#N)c(-c2cccs2)c1C#N` [2-[(6-amino-3,5-dicyano-4-thiophen-2-yl-2-pyridinyl)thio]acetic acid propan-2-yl ester], the concentration for a half-maximal effect (EC50) was above 30 µM.

Turning to `CCCc1cc(C(=O)Nc2sc3c(c2C#N)CCC3)no1` [MLS000116386], the EC50 is above 95 µM.

As to `Cn1c(-c2c(N)n(C3CCCC3)c3nc4ccccc4nc23)nc2ccccc21` [1-cyclopentyl-3-(1-methyl-2-benzimidazolyl)-2-pyrrolo[3,2-b]quinoxalinamine], the EC50 was determined as 1.56 µM.

As to `CC(=O)Nc1ccccc1OCC(=O)c1cc(C)n(Cc2cccs2)c1C` [MLS000056239], the EC50 was determined as 0.223 µM.

Take `Fc1ccccc1COc1ccc(C=Nn2cnnc2)cc1` [1-[4-[(2-fluorophenyl)methoxy]phenyl]-N-(1,2,4-triazol-4-yl)methanimine]: the EC50 is 4.74 µM.

In the case of `Oc1ccc(C2NCc3ccccc3-n3cccc32)cc1Cl` (configuration not stated) [2-chloranyl-4-(5,6-dihydro-4H-pyrrolo[1,2-a][1,4]benzodiazepin-4-yl)phenol;hydrochloride], the EC50 stood at 2.83 µM.

Regarding `COC(=O)c1cc(NCc2ccccc2F)ccc1N1CCOCC1` [5-[(2-fluorobenzyl)amino]-2-morpholino-benzoic acid methyl ester], the EC50 came out at 5.46 µM.

`COc1ccc(S(=O)(=O)Cc2ccc(C(=O)N3CCN(c4cccc(C)c4C)CC3)o2)cc1` [MLS000120226]: the EC50 was above 30 µM.

Turning to `Cc1ccccc1-n1c(SCC(=O)c2cc(C)n(C)c2C)nnc1-c1ccncc1` [2-[[4-(2-methylphenyl)-5-pyridin-4-yl-1,2,4-triazol-3-yl]sulfanyl]-1-(1,2,5-trimethylpyrrol-3-yl)ethanone], the EC50 is above 95 µM.

On to `CCC(C)c1ccc2oc(-c3ccc(NC(=O)Cn4cnc5c(=O)n(C)c(=O)n(C)c54)cc3)nc2c1` (configuration not stated) [2-(2,6-diketo-1,3-dimethyl-purin-9-yl)-N-[4-(5-sec-butyl-1,3-benzoxazol-2-yl)phenyl]acetamide], for which the EC50 amounted to 1.59 µM.

As to `Fc1ccc(COc2ccc(C=Nn3cnnc3)cc2)cc1` [1-[4-[(4-fluorophenyl)methoxy]phenyl]-N-(1,2,4-triazol-4-yl)methanimine], the EC50 amounted to 6.53 µM.

`Fc1ccc2[nH]c3c(N4CCSCC4)ncnc3c2c1` [MLS000078401]: the EC50 worked out at 6.28 µM.

On to `Oc1c(Cl)cc(Cl)cc1Sc1cc(Cl)cc(Cl)c1O`, for which the EC50 amounted to 1.24 µM.

Turning to `COc1ccccc1OCCCCCc1c(C)n[nH]c1C` [SMR000103101], the EC50 came out at 8.22 µM.

Take `CCOc1ccc(-c2nnc(-c3cccs3)o2)cc1OCC` [2-(3,4-Diethoxy-phenyl)-5-thiophen-2-yl-[1,3,4]oxadiazole]: the EC50 stood at 5.58 µM.

`Cc1oc(-c2ccccc2)nc1Cn1cccc1C1=NC(c2ccccc2)CO1` (configuration not stated) [SMR000026251]: the EC50 came out at 0.692 µM.

Consider `CC1Cc2ccccc2N1c1ncnc2nc[nH]c12` (configuration not stated) [SMR000017649], for which the EC50 was determined as 7.03 µM.

`CCSc1nnc(NC(=O)C(Cc2ccccc2)n2cccc2)s1` (configuration not stated) [MLS000119034]: the EC50 is above 30 µM.

In the case of `c1ccc2c(c1)oc1c(NCc3ccc4c(c3)OCO4)ncnc12` [MLS000057790], the EC50 is 6.46 µM.

With `O=C(Nc1ccc(N2CCCC2)c(Cl)c1)c1ccc(Br)o1` [5-bromanyl-N-(3-chloranyl-4-pyrrolidin-1-yl-phenyl)furan-2-carboxamide], the concentration giving a half-maximal response (EC50) worked out at 3.76 µM.

`Cc1ccc(-n2c(C)cc(C(=O)COC(=O)c3c(C)noc3C)c2C)cc1` [3,5-dimethyl-4-isoxazolecarboxylic acid [2-[2,5-dimethyl-1-(4-methylphenyl)-3-pyrrolyl]-2-oxoethyl] ester]: the EC50 worked out at 7.98 µM.

Regarding `O=C(Nc1nc2c(s1)CCCC2)c1cc2n(n1)C(C(F)(F)F)CC(C1CC1)N2` (configuration not stated) [5-Cyclopropyl-7-trifluoromethyl-4,5,6,7-tetrahydro-pyrazolo[1,5-a]pyrimidine-2-carboxylic acid (4,5,6,7-tetrahydro-benzothiazol-2-yl)-amide], the EC50 came to 0.908 µM.

On to `COc1ccc(-c2nc(-c3ccc(NC(=O)c4ccncc4)cc3)no2)cc1OC` [MLS000115086], for which the EC50 worked out at 0.685 µM.

Take `OCC12C=CC(O1)c1c2c(O)n(-c2ccccc2-c2ccccc2)c1O` (configuration not stated) [7-(hydroxymethyl)-2-(2-phenylphenyl)-4,7a-dihydro-3aH-octahydro-1H-4,7-epoxyisoindole-1,3-dione]: the EC50 came out at 6.82 µM.

As for `CC(C)c1cc(C(F)(F)F)n2nc(C(=O)Nc3ccc4c(c3)OCO4)cc2n1` [5-Isopropyl-7-trifluoromethyl-pyrazolo[1,5-a]pyrimidine-2-carboxylic acid benzo[1,3]dioxol-5-ylamide], the EC50 was 2.84 µM.

For `COc1ccc(N2CCn3c2nc2c3c(=O)n(CCCc3ccccc3)c(=O)n2C)c(OC)c1` [6-(2,4-dimethoxyphenyl)-4-methyl-2-(3-phenylpropyl)-7,8-dihydropurin[7,8-a]imidazole-1,3-quinone], the EC50 worked out at 8.71 µM.

Consider `Nc1ccc(N2CCOCC2)c(Cl)c1` [(3-chloro-4-morpholino-phenyl)amine], for which the EC50 came to 0.981 µM.

On to `O=S(=O)(NCc1cn2ccsc2n1)c1ccc(Oc2ccccc2)cc1` [MLS000094195], for which the EC50 stood at 5 µM.

As for `O=C(Cc1c[nH]c2ccccc12)N1CCc2ccccc21`, the concentration giving a half-maximal response (EC50) is 7.74 µM.

As for `c1ccc(CSc2nnc(-c3c[nH]c4ccccc34)o2)cc1`, the EC50 was determined as 1.59 µM.

As to `COC(=O)C1=CN(CCCN2CCCC2=O)C=C(C(=O)OC)C1c1ccccc1C(F)(F)F`, the EC50 is above 95 µM.

The same test, now with this note: inactive by the depositor's call.
Take `Cc1ccc2nc(NC(=O)CSc3nc4c(c(=O)n3C)SC(C)C4)sc2c1` (configuration not stated) [2-[(3,6-dimethyl-4-oxidanylidene-6,7-dihydrothieno[3,2-d]pyrimidin-2-yl)sulfanyl]-N-(6-methyl-1,3-benzothiazol-2-yl)ethanamide]: the concentration for a half-maximal effect (EC50) is 16.5 µM.

With `O=C(c1ccco1)N1CCN(c2ncnc3c2[nH]c2ccc(Br)cc23)CC1` [MLS000078404], the EC50 worked out at 15.5 µM.

As to `COc1ccc(-n2c(C)cc(C(=O)COC(=O)Cn3cnc4ccccc43)c2C)cc1` [2-(1-benzimidazolyl)acetic acid [2-[1-(4-methoxyphenyl)-2,5-dimethyl-3-pyrrolyl]-2-oxoethyl] ester], the concentration for a half-maximal effect (EC50) came out at 11.6 µM.

As to `O=S1(=O)C=C(Sc2nnc(-c3ccccc3)o2)c2ccccc21`, the EC50 came to 23.5 µM.

With `CCOC(=O)c1ccc2nc(NC(=O)c3ccco3)sc2c1` [2-(2-furoylamino)-1,3-benzothiazole-6-carboxylic acid ethyl ester], the concentration giving a half-maximal response (EC50) was 18.7 µM.

With `Cc1ccccc1OCC(=O)Nc1ccc(N2CCN(C(=O)C(C)C)CC2)c(Cl)c1` [MLS000034491], the EC50 is 15.2 µM.

Turning to `Nn1c(Nc2ccccc2)nc2sc3c(c2c1=O)CCC3` [2-amino-3-anilino-7,8-dihydro-6H-cyclopenta[2,3]thieno[2,4-b]pyrimidin-1-one], the EC50 is 21.7 µM.

Consider `O=C(CSc1nnc(-c2ccc(Cl)cc2)n1Cc1ccco1)c1cccs1` [2-[[5-(4-chlorophenyl)-4-(2-furanylmethyl)-1,2,4-triazol-3-yl]thio]-1-thiophen-2-ylethanone], for which the EC50 worked out at 13.8 µM.

Regarding `CCCn1c(NC(=O)c2cccc(S(=O)(=O)N3CCCC3)c2)nc2ccccc21` [MLS000057540], the EC50 is 10.3 µM.

Turning to `CCCOc1ccc(S(=O)(=O)NCc2ccc(OC)cc2)cc1` [MLS000104592], the EC50 stood at 19.8 µM.

For the compound `C=CCn1c(SCC(=O)c2cccs2)nc2sc(CC)cc2c1=O` [3-allyl-6-ethyl-2-[[2-keto-2-(2-thienyl)ethyl]thio]thieno[2,3-d]pyrimidin-4-one], the EC50 was 38.8 µM.

`COc1cccc(NC(=O)Nc2nnc(N3CCCCC3C)s2)c1` (configuration not stated) [1-(3-methoxyphenyl)-3-[5-(2-methyl-1-piperidinyl)-1,3,4-thiadiazol-2-yl]urea]: the EC50 came to 11.5 µM.

For `CCOC(=O)c1sc2nc(NC(=O)C(C)(C)C)sc2c1C` [2-[(2,2-dimethyl-1-oxopropyl)amino]-6-methyl-5-thieno[2,3-d]thiazolecarboxylic acid ethyl ester], the EC50 was 10.1 µM.

As to `CC(=O)N1CCCc2cc(S(=O)(=O)NCCC3=CCCCC3)ccc21` [1-acetyl-N-(2-cyclohex-1-en-1-ylethyl)-1,2,3,4-tetrahydroquinoline-6-sulfonamide], the 50% effective concentration (EC50) came out at 13.4 µM.

For the compound `CCN(CC)S(=O)(=O)c1cc(C(=O)Nc2ccncc2)ccc1Cl` [4-chloranyl-3-(diethylsulfamoyl)-N-pyridin-4-yl-benzamide], the EC50 amounted to 44.2 µM.

Consider `Brc1ccc2ncnc(Nc3ccc(N4CCOCC4)cc3)c2c1` [(6-bromoquinazolin-4-yl)-(4-morpholinophenyl)amine], for which the EC50 came to 15.1 µM.

For the compound `C=CCn1c(C)cc(C(=O)CSc2nc3ccccc3o2)c1C` [1-(1-allyl-2,5-dimethyl-pyrrol-3-yl)-2-(1,3-benzoxazol-2-ylthio)ethanone], the EC50 was 10.3 µM.

Turning to `CCC(C)c1ccc2oc(-c3ccc(NC(=O)c4nnc[nH]4)cc3)nc2c1` (configuration not stated) [N-[4-(5-sec-butyl-1,3-benzoxazol-2-yl)phenyl]-1H-1,2,4-triazole-3-carboxamide], the EC50 came to 12.7 µM.

Turning to `CCc1ccc(N(CC)c2ncnc3nc[nH]c23)cc1`, the EC50 is 14.7 µM.
